Laboratory results taken from article PMC11206297, “Targeting NAD Metabolism: Rational Design, Synthesis and In Vitro Evaluation of NAMPT/PARP1 Dual-Target Inhibitors as Anti-Breast Cancer Agents” (Molecules, 2024).

Legend:
NAMPT = NAMPT (Homo sapiens, UniProt P43490); assay: NAMPT enzymatic inhibition assay (fluorescence, coupled NMNAT/alcohol dehydrogenase); assay type: biochemical; details: mean ± SD of at least two independent experiments in duplicate
PARP1 = PARP1 (Homo sapiens, UniProt P09874); assay: PARP1 enzymatic inhibition assay (ELISA, chemiluminescence); assay type: biochemical
PARP1, sequence (P09874 whole entry): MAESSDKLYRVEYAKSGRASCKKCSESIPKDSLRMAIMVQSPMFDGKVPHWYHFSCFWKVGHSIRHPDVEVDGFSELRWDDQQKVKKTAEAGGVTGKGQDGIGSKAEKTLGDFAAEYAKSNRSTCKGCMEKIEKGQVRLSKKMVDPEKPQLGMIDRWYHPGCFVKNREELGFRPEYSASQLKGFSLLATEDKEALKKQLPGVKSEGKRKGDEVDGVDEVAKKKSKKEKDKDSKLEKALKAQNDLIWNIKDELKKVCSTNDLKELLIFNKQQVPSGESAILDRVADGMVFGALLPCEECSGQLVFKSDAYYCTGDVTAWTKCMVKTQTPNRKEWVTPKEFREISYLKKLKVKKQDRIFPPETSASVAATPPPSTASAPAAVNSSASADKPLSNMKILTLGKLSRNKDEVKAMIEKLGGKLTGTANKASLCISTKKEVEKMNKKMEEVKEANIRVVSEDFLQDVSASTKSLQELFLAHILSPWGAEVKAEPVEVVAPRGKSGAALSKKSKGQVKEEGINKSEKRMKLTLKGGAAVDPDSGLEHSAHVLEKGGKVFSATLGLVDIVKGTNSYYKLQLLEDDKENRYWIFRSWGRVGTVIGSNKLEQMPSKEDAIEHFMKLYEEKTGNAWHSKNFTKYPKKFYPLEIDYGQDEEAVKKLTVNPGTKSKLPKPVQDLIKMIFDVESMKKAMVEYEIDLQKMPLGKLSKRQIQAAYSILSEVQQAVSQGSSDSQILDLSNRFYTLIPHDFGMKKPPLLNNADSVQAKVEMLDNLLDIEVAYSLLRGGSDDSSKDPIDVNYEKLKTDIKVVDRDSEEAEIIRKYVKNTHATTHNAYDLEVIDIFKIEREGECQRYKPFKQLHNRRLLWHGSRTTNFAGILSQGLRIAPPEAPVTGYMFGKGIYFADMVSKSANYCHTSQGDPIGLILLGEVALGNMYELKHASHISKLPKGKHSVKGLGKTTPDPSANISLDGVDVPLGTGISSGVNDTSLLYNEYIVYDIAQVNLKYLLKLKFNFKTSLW

MDA-MB-231 = assay: MTT cell viability assay, MDA-MB-231; assay type: cell-based; details: Homo sapiens, 72 h, mean ± SEM, read-out: Cytotoxicity IC50 MDA-MB-231
Method: (§1) MDA-MB-468, MDA-MB-231, MCF-7, and MCF-10A cell lines were obtained from the National Collection of Authenticated Cell Culture, China. The cells were cultured in DMEM medium supplemented with 10% FBS and 1% penicillin/streptomycin, and maintained at 37 °C in a humidified atmosphere with 5% CO2.
(§2) Cell viability was assessed using the MTT assay. Cells were seeded at a density of 3 × 10^3 cells per well in a 96-well plate and treated with various concentrations (0.05, 0.2, 0.8, 3.2, 6.4, 12.8 µM) of the compounds for 72 h. After incubation, 100 µL of MTT solution (0.5 mg/mL) was added to each well and further incubated for 4 h. The resulting formazan crystals were dissolved in 150 µL of DMSO, and the absorbance was measured at 570 nm using a microplate reader.

MDA-MB-468 = assay: MTT cell viability assay, MDA-MB-468; assay type: cell-based; details: Homo sapiens, 72 h, mean ± SEM, read-out: Cytotoxicity IC50 MDA-MB-468
Method: as §1, §2

MCF-7 = assay: MTT cell viability assay, MCF-7; assay type: cell-based; details: Homo sapiens, MCF7, 72 h, mean ± SEM, read-out: Cytotoxicity IC50 MCF-7
Method: as §1, §2

[1] = MTT cell viability assay, MCF-10A normal breast epithelial cells; assay type: cell-based, human; details: human, MCF-10A normal breast epithelial cells; MCF-10A; mean ± SEM; read-out: Cytotoxicity IC50
Method: as §1, §2

MCF-10A = assay: as above; assay type: cell-based, human
Method: as §1, §2

MDA-MB-468 cells [2] = assay: Annexin V-FITC/PI apoptosis assay (flow cytometry); assay type: cell-based; details: 72 h
Method: To investigate whether DDY02 induced apoptosis in MDA-MB-468 cells, we performed the annexin V/PI double staining assay, and the staining results were analyzed by flow cytometry, dividing the results into four quadrants (Q1~Q4). In this representation, Q1 represents necrosis, Q2 represents late apoptosis, Q3 represents early apoptosis, and Q4 represents living cells.
The Annexin V-FITC/PI cell apoptosis detection kit (KeyGen Biotech, Nanjing, China) was employed for the analysis of cell apoptosis. MDA-MB-468 cells (5 × 10^5 cells/mL) were seeded in six-well plates and treated with compounds at corresponding concentrations for 72 h. Subsequently, MDA-MB-468 cells were harvested and incubated with 5 μL of Annexin V-FITC and 5 μL of propidium iodide (PI) in the dark for 15 min at room temperature. Apoptosis data were assessed using flow cytometry (Accuri C6 Plus, BD Bioscience, San Jose, CA, USA).

MDA-MB-468 cells [3] = assay: Colony formation (clonogenic) assay; assay type: cell-based; details: MDA-MB-468, 7 days
Method: MDA-MB-468 cells were plated in 6-well plates at a density of 500 cells/well and allowed to grow for 7 days to promote colony formation. Following the incubation period, cells were washed with PBS, fixed in methanol for 15 min, and stained with 1% crystal violet for 1 h. Subsequently, colonies were imaged and counted.

MDA-MB-468 cells [4] = assay: NMN rescue of cytotoxicity; assay type: cell-based; details: 200 μM NMN
Excerpt: NMN is the direct product of the NAMPT-catalyzed reaction. Excessive NMN can counteract the inhibitory effect of NAMPT inhibition. […] The reversal of DDY02’s efficacy by NMN underscores the compound’s mechanism of action and confirms the critical role of NAMPT inhibition in mediating its therapeutic effects. This observation also emphasizes the potential of NMN as a modulator in therapeutic scenarios involving NAMPT-targeted treatments.

MDA-MB-468 cells [5] = assay: Cellular NAD level determination (NAD+/NADH WST-8 kit); assay type: cell-based
Method: According to the manufacturer’s instructions, an NAD^+/NADH Assay kit with WST-8 (Beyotime, China) was used to measure the intracellular NAD level. The cells collected by centrifugation were added to NAD^+/NADH lysis buffer to obtain a cell lysate. After adding […] working solution, the lysate was incubated at 37 °C for 10 min, and then followed by the addition of color-developing solution. The total concentration of NADH and NAD can be measured by detecting the absorbance at 450 nm. To measure the concentration of NADH, the cell lysate was incubated at 60 °C for 30 min before adding […] working solution. Finally, the NAD content is obtained by the subtraction [NAD^+] = [NADH + NAD^+] − [NADH].

MDA-MB-468 cells [6] = assay: Western blot of γ-H2AX; assay type: cell-based; details: 24 h
Method: (§3) Cells were then lysed using RIPA buffer supplemented with protease and phosphatase inhibitors. Protein concentrations were determined using the BCA Protein Assay Kit (Thermo Fisher Scientific^TM, Waltham, MA, USA). Equal amounts of protein (20–30 µg) were separated by SDS-polyacrylamide gel electrophoresis and transferred to a polyvinylidene fluoride (PVDF) membrane. The membrane was blocked with 5% milk in PBS before incubation with primary antibodies. Primary antibodies against γ-H2AX (Cell Signaling Technology™, Danvers, MA, USA), BCL2 (Abcam™, Cambridge, UK), and β-actin (Proteintech™, Rosemont, IL, USA) were used. After overnight incubation at 4 °C, membranes were washed and incubated with HRP-conjugated secondary antibodies for 1 h. Protein bands were visualized using ECL reagents (Labgic Technology^TM, Beijing, China).

MDA-MB-468 cells [7] = assay: Comet assay (DNA damage); assay type: cell-based; details: 24 h, several concentrations
Method: The comet assay was conducted under alkaline conditions using the Comet Assay Kit (Beyotime, Shanghai, China) following the manufacturer’s guidelines. […] This mixture was spread onto microscope slides and immersed in lysis solution for 1 h. Electrophoresis was carried out in a horizontal apparatus at 25 V and 300 mA. After electrophoresis, slides were stained with propidium iodide (PI) for DNA visualization, and images were captured using a fluorescence inverted microscope.

MDA-MB-468 cells [8] = assay: Western blot of BCL2; assay type: cell-based; details: 24 h, several concentrations
Method: as §3

MDA-MB-468 cells [9] = assay: Wound scratch cell migration assay; assay type: cell-based; details: up to 48 h
Method: MDA-MB-468 cells were plated in 6-well plates at a density of 5 × 10^5 cells/well and allowed to incubate overnight. A scratch was carefully generated in the cell monolayer using a 10 µL pipette tip. […] Images were acquired at 0, 12, 24, and 48 h time points to monitor and analyze the migration of cells over the specified intervals.

MDA-MB-468 cells [10] = assay: Cell cycle analysis (PI staining, flow cytometry); assay type: cell-based; details: 48 h, several concentrations
Method: Cell cycle distribution was determined using a DNA Content Quantitation Assay Kit (Solarbio, China). MDA-MB-468 cells were seeded in six-well plates and treated with various […]
treatment, cells were harvested, ﬁxed in 70% ethanol at 4°C overnight, and washed with PBS.
Cells were then incubated with RNase (100 µL) at 37°C for 30 minutes followed by propidium iodide (PI) staining (400 µL, 30 minutes, 4°C in the dark). Cell cycle distribution was analyzed using an Accuri C6 Plus ﬂow cytometer (BD Biosciences, CA) and data were processed using […]
Figure S5. DDY02 induced cell cycle of MDA-MB-468 cells arrest in the G1 phase.
(1 picture or pasted object on this page, not shown here)

NAMPT, sequence (P43490 whole entry): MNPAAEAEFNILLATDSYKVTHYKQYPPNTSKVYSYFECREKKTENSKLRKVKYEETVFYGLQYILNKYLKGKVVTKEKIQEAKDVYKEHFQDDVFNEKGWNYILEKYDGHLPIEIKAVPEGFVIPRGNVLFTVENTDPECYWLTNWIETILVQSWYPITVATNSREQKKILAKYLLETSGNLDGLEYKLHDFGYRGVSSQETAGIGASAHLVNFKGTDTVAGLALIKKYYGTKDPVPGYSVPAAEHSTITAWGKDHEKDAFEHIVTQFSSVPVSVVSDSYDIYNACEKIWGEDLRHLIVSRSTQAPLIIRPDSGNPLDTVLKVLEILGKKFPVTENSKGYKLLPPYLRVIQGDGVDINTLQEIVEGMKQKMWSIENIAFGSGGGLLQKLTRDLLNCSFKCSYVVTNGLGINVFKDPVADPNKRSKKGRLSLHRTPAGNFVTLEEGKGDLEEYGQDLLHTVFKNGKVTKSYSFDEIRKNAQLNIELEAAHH

Question: Which IC50 (NAMPT) does the source give for `O=C(NCc1cccnc1)Nc1ccc(S(=O)(=O)N2CCN(C(=O)c3cc(Cc4n[nH]c(=O)c5ccccc45)ccc3F)CC2)cc1` [DDY02, 1-(4-((4-(2-Fluoro-5-((4-oxo-3,4-dihydrophthalazin-1-yl)methyl)benzoyl)piperazin-1-yl)sulfonyl)phenyl)-3-(pyridin-3-ylmethyl)urea] here?
Answer: 0.01 ± 0.003 µM

Question: What about the IC50 (PARP1; mean ± SD of at least two independent experiments in duplicate) of the same molecule?
Answer: 0.05 ± 0.01 µM

Question: What about the “fold decrease in inhibitory capacity against PARP1 compared to DDY01” value (PARP1; ratio of IC50 values) of the same molecule?
Answer: 5.5 fold

Question: What about the IC50 (MDA-MB-231) of the same molecule?
Answer: 10.4 ± 0.16 µM

Question: And the IC50 (MDA-MB-468)?
Answer: 4.43 ± 0.04 µM

Question: What about the IC50 (MCF-7) of the same molecule?
Answer: 7.61 ± 0.14 µM

Question: And the IC50 at 72 h [1]?
Answer: 5.31 ± 0.12 µM

Question: And the viability at 3 µM (MCF-10A; Homo sapiens, 72 h, 3.0 μM, MCF-10A, mean ± SEM, read-out: Cell Survival Rate)?
Answer: 70.3 ± 1.06%

Question: And the “selectivity of cytotoxic activity between breast cancer cells and normal cells (MCF-10A)” value (MCF-10A; comparison of Tables 2 and 3)?
Answer: no selectivity

Question: And the “percentage of apoptotic cells (Q2 + Q3)” value (MDA-MB-468 cells [2]; 0.3 µM)?
Answer: 13.34%

Question: And the “levels of apoptosis (comparison)” value (MDA-MB-468 cells [2]; 1 μM)?
Answer: higher levels of apoptosis compared to Olaparib and FK866 alone

Question: What about the “percentage of apoptotic cells (Q2 + Q3)” value (MDA-MB-468 cells [2]; 1 μM) of the same molecule?
Answer: 21.20%

Question: What about the “percentage of apoptotic cells (Q2 + Q3)” value (MDA-MB-468 cells [2]; 3 µM) of the same molecule?
Answer: 48.3%

Question: And the colony formation (MDA-MB-468 cells [3]; 1 μM)?
Answer: more potent ability to inhibit colony formation compared to Olaparib, albeit slightly less effective than FK866

Question: And the colony formation (MDA-MB-468 cells [3]; several concentrations)?
Answer: dose-dependent suppression of colony formation

Question: And the “cytotoxic effects after preincubation with NMN” value (MDA-MB-468 cells [4])?
Answer: reversed the cytotoxic effects

Question: And the “cellular NAD levels” value (MDA-MB-468 cells [5]; 24 h, 1 μM)?
Answer: marginally less potent than FK866

Question: What about the “cellular NAD levels” value (MDA-MB-468 cells [5]; 24 h post-treatment, several concentrations) of the same molecule?
Answer: reduced cellular NAD levels in a dose-dependent manner

Question: What about the “accumulation of γ-H2AX” value (MDA-MB-468 cells [6]; 1 μM) of the same molecule?
Answer: most substantial effect

Question: And the “accumulation of γ-H2AX” value (MDA-MB-468 cells [6]; several concentrations)?
Answer: dose-dependent accumulation of γ-H2AX

Question: And the “DNA damage (comet assay)” value (MDA-MB-468 cells [7])?
Answer: increased DNA damage in a concentration-dependent manner

Question: What about the BCL2 expression (MDA-MB-468 cells [8]) of the same molecule?
Answer: inhibited BCL2 expression in a dose-dependent manner

Question: What about the “inhibitory effect on cell migration” value (MDA-MB-468 cells [9]; 1 μM) of the same molecule?
Answer: slightly less pronounced inhibitory effect

Question: And the “inhibitory effect on cell migration” value (MDA-MB-468 cells [9]; 3 μM)?
Answer: further augmented

Question: And the cell cycle distribution (MDA-MB-468 cells [10])?
Answer: dose-dependent G1-phase cell cycle arrest

Question: What about the melting point of the same molecule?
Answer: 197 to 198 °C
